Measured values as given in ChEMBL document CHEMBL3875196, “Novel pyrazolo[1,5-a]pyridines with improved aqueous solubility as p110α-selective PI3 kinase inhibitors” (Bioorg Med Chem Lett, 2017).

Key:
[1] = Antiproliferative activity against wild type p110alpha expressing human NZOV9 cells after 5 days by [3H]-thymidine incorporation assay; type: functional, cell-based
[2] = molecular target: T1, Phosphatidylinositol 4,5-bisphosphate 3-kinase catalytic subunit delta isoform (Homo sapiens, UniProt O00329); experiment: Inhibition of p110delta (unknown origin) using L-alpha phosphatidylinositol as substrate after 1 hr in presence of [gamma33]-ATP by thin layer chromatographic analysis
T1 sequence (O00329 whole entry): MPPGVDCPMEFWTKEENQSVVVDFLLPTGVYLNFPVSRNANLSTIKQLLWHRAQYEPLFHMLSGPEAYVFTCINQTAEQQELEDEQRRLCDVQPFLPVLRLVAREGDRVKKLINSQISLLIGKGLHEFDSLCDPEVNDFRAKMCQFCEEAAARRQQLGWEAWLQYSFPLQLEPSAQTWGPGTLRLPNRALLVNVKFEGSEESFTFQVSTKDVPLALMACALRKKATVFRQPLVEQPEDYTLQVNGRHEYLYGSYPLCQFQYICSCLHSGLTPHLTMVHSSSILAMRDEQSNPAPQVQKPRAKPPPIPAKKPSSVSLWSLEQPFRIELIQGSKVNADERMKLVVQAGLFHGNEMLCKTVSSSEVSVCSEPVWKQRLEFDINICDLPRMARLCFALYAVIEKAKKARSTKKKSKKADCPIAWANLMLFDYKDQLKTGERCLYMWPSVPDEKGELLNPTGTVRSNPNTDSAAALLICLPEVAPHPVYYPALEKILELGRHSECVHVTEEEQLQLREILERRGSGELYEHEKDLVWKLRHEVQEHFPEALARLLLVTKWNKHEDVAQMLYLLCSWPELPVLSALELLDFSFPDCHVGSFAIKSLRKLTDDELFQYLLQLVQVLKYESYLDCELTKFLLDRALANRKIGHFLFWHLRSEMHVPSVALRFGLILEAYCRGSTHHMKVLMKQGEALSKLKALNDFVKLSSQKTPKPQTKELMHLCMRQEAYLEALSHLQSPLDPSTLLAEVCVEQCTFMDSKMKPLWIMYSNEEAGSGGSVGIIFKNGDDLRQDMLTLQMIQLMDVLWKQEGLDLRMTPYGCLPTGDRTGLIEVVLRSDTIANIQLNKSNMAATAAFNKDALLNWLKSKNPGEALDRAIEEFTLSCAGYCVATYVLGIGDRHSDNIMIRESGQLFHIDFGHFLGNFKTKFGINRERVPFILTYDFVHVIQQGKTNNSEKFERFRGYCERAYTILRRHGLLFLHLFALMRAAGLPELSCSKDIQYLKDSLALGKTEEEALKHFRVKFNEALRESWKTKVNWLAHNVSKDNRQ

[3] = molecular target: PI3K p110 beta/p85 alpha (Homo sapiens, UniProt P42338); experiment: Inhibition of recombinant human p110beta/N-terminal His-tagged human p85alpha expressed in baculovirus infected sf cells using L-alpha-phosphatidylinositol as substrate after 1 hr in presence of [gamma33]-ATP by thin layer chromatographic analysis
Sequence of PI3K p110 beta/p85 alpha (P27986 whole entry): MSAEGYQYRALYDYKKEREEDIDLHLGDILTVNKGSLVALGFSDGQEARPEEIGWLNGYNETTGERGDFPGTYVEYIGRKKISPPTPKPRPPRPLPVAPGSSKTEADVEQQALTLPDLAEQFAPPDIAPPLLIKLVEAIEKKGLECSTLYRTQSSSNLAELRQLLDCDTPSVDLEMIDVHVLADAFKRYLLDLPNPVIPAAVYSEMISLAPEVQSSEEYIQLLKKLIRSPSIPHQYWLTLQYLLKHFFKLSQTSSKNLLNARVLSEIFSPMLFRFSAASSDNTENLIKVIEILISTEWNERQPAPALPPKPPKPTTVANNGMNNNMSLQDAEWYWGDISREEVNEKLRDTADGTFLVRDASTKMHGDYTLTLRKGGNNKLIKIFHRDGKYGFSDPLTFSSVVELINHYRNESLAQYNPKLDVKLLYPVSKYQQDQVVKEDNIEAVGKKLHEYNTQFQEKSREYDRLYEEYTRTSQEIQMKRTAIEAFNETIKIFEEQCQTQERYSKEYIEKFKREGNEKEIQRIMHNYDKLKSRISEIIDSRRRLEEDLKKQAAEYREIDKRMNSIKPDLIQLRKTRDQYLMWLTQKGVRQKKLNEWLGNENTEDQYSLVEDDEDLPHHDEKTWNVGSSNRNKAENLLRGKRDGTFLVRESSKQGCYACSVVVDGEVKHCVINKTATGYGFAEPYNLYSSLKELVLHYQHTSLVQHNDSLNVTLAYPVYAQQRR
Sequence of PI3K p110 beta/p85 alpha (P42338 whole entry): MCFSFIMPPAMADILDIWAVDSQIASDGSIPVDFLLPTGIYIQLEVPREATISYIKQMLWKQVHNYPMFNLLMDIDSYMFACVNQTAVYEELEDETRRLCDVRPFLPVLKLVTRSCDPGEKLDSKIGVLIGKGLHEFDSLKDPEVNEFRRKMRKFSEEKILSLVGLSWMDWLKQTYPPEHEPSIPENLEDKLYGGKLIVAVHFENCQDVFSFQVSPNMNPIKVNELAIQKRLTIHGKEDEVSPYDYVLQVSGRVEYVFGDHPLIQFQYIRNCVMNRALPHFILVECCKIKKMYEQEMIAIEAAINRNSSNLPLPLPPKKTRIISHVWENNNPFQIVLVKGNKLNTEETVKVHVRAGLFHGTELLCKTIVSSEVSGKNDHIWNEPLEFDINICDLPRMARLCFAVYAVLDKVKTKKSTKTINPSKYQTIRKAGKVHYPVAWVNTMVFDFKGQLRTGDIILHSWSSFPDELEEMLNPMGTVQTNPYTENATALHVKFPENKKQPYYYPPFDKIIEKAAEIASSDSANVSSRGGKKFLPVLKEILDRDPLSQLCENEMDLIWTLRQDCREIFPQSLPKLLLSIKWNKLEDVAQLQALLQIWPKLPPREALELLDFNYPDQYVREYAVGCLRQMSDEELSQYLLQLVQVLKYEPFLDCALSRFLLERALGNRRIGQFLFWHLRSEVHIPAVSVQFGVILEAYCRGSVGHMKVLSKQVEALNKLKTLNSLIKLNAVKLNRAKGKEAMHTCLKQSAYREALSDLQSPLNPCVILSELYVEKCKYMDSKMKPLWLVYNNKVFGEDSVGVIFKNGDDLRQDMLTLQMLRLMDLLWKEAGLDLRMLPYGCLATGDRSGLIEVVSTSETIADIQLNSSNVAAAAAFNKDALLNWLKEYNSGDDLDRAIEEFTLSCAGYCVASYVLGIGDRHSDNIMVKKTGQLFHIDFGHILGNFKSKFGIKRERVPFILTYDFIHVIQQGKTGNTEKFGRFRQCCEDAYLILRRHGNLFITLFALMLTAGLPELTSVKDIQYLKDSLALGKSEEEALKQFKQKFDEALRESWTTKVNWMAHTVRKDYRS

[4] = Inhibition of recombinant mouse p110alpha/N-terminal His-tagged human p85alpha expressed in baculovirus infected Sf21 cells using L-alpha-phosphatidylinositol as substrate after 1 hr in presence of [gamma33]-ATP by thin layer chromatographic analysis
[5] = Antiproliferative activity against wild type p110alpha expressing human NZB5 cells after 5 days by [3H]-thymidine incorporation assay; type: functional, cell-based

Row | Structure (SMILES) | IC50 [2] | IC50 [3] | IC50 [4] | IC50 [1] | IC50 [5]
1 | CN(CCCN1CCOCC1)c1ccc(C#N)cc1S(=O)(=O)N(C)/N=C/c1cnn2ccc(C#N)cc12 | 370 nM | > 1000 nM | 240 nM | 360 nM | 21 nM
2 | C/C(=N\NS(=O)(=O)c1cc([N+](=O)[O-])ccc1N(C)CCN(C)C)c1cnn2ccc(Br)cc12 | > 1000 nM | > 1000 nM | 208 nM | 420 nM | 420 nM
3 | Cc1ccc([N+](=O)[O-])cc1S(=O)(=O)N(CCO)/N=C/c1cnn2ccc(C#N)cc12 | – | – | 1.3 nM | 140 nM | –
4 | CN(CCN1CCCCC1)c1ccc([N+](=O)[O-])cc1S(=O)(=O)N(C)/N=C/c1cnn2ccc(C#N)cc12 | 450 nM | 4200 nM | 79 nM | 49 nM | 92 nM
5 | CN(CCCN1CCOCC1)c1ccc([N+](=O)[O-])cc1S(=O)(=O)N(C)/N=C/c1cnn2ccc(C#N)cc12 | 170 nM | 510 nM | 26 nM | 560 nM | 71 nM
6 | C/C(=N\NS(=O)(=O)c1cc([N+](=O)[O-])ccc1N(C)CCCN1CCOCC1)c1cnn2ccc(C#N)cc12 | – | – | 333 nM | 9500 nM | 2400 nM
7 | C/C(=N\N(C)S(=O)(=O)c1cc([N+](=O)[O-])ccc1N(C)Cc1ccccn1)c1cnn2ccc(Br)cc12 | – | – | 1040 nM | 3000 nM | 2600 nM
8 | CN(C)CCN(C)c1ccc([N+](=O)[O-])cc1C(=O)N(C)/N=C/c1cnn2ccc(C#N)cc12 | 68 nM | 230 nM | 580 nM | 3100 nM | 5600 nM
9 | CCN(CC)CCN(C)c1ccc([N+](=O)[O-])cc1S(=O)(=O)N(C)/N=C/c1cnn2ccc(C#N)cc12 | 66 nM | 330 nM | 75 nM | 340 nM | 500 nM
10 | CN(C)CCN(C)c1ccc(C#N)cc1C(=O)N(C)/N=C/c1cnn2ccc(C#N)cc12 | – | – | 630 nM | 6200 nM | 2900 nM
11 | CN(C)CCN(C)c1ccc([N+](=O)[O-])cc1S(=O)(=O)N(C)/N=C/c1cnn2ccc(Br)cc12 | – | – | 510 nM | < 2 nM | < 2 nM
12 | C/C(=N\N(C)S(=O)(=O)c1cc([N+](=O)[O-])ccc1N(C)CCCN1CCOCC1)c1cnn2ccc(Br)cc12 | – | – | > 1000 nM | 3800 nM | 5100 nM
13 | CN(/N=C/c1cnn2ccc(C#N)cc12)S(=O)(=O)c1cc([N+](=O)[O-])ccc1NCCN1CCOCC1 | 27 nM | > 1000 nM | 9 nM | > 20000 nM | 9400 nM
14 | C/C(=N\N(C)S(=O)(=O)c1cc([N+](=O)[O-])ccc1N(C)CCCN1CCOCC1)c1cnn2ccc(C#N)cc12 | – | – | > 1000 nM | 2400 nM | 3300 nM
15 | CN(C)CCNc1ccc([N+](=O)[O-])cc1S(=O)(=O)N(C)/N=C/c1cnn2ccc(C#N)cc12 | > 1000 nM | > 1000 nM | 430 nM | 640 nM | 750 nM
16 | CN(C)CCN(C)c1ccc([N+](=O)[O-])cc1S(=O)(=O)N(C)/N=C/c1cnn2ccc(C#N)cc12 | 230 nM | 670 nM | 46 nM | 55 nM | 49 nM
17 | CN(/N=C/c1cnn2ccc(C#N)cc12)S(=O)(=O)c1cc([N+](=O)[O-])ccc1OCCN1CCOCC1 | 94 nM | 220 nM | 21 nM | 410 nM | 440 nM
18 | C/C(=N\NS(=O)(=O)c1cc([N+](=O)[O-])ccc1N(C)Cc1ccccn1)c1cnn2ccc(C#N)cc12 | 11 nM | 207 nM | 4.8 nM | 3200 nM | 97 nM
19 | C/C(=N\NS(=O)(=O)c1cc([N+](=O)[O-])ccc1N(C)CCN(C)C)c1cnn2ccc(C#N)cc12 | 676 nM | 900 nM | 51 nM | 2000 nM | 460 nM
20 | CN(C)CCOc1ccc([N+](=O)[O-])cc1S(=O)(=O)N(C)/N=C/c1cnn2ccc(C#N)cc12 | > 1000 nM | > 1000 nM | 75 nM | 170 nM | 100 nM
21 | CN(CCCN1CCOCC1)c1ccc([N+](=O)[O-])cc1S(=O)(=O)N(C)/N=C/c1cnn2ccc(Br)cc12 | – | – | 370 nM | 670 nM | 94 nM
22 | CN(/N=C/c1cnn2ccc(Br)cc12)S(=O)(=O)c1cc([N+](=O)[O-])ccc1OCCN1CCOCC1 | 350 nM | 2900 nM | 51 nM | 550 nM | 270 nM
23 | CN(/N=C/c1cnn2ccc(C#N)cc12)S(=O)(=O)c1cc(C#N)ccc1OCCN1CCOCC1 | 680 nM | > 1000 nM | 360 nM | 390 nM | 400 nM
24 | C/C(=N\N(C)S(=O)(=O)c1cc([N+](=O)[O-])ccc1N(C)CCN(C)C)c1cnn2ccc(Br)cc12 | > 1000 nM | – | > 1000 nM | 930 nM | 3500 nM
25 | C/C(=N\NS(=O)(=O)c1cc([N+](=O)[O-])ccc1N(C)CCCN1CCOCC1)c1cnn2ccc(Br)cc12 | – | – | 448 nM | 3200 nM | 900 nM
26 | CN(C)CCN(C)c1ccc(C#N)cc1S(=O)(=O)N(C)/N=C/c1cnn2ccc(C#N)cc12 | 380 nM | 2000 nM | 81 nM | 47 nM | 55 nM

Second part, led by results:

Row | IC50 [2] | IC50 [3] | IC50 [4] | Structure (SMILES) | IC50 [1] | IC50 [5]
27 | 280 nM | 1000 nM | 65 nM | CNCCN(C)c1ccc([N+](=O)[O-])cc1S(=O)(=O)N(C)/N=C/c1cnn2ccc(C#N)cc12 | 11 nM | 24 nM
28 | – | > 1000 nM | 180 nM | CN(Cc1ccccn1)c1ccc([N+](=O)[O-])cc1S(=O)(=O)N(C)/N=C/c1cnn2ccc(Br)cc12 | 580 nM | 93 nM
29 | 61 nM | 160 nM | 17 nM | CN(CCc1ccncc1)c1ccc([N+](=O)[O-])cc1S(=O)(=O)N(C)/N=C/c1cnn2ccc(C#N)cc12 | 250 nM | < 2 nM
30 | 60 nM | 410 nM | 9 nM | CN(CCc1ccccn1)c1ccc([N+](=O)[O-])cc1S(=O)(=O)N(C)/N=C/c1cnn2ccc(C#N)cc12 | 410 nM | 5 nM
31 | 950 nM | 5600 nM | 6 nM | CN(/N=C/c1cnn2ccc(C#N)cc12)S(=O)(=O)c1cc([N+](=O)[O-])ccc1OCc1ccccn1 | 660 nM | 1300 nM
32 | 350 nM | > 1000 nM | 25 nM | CN(/N=C/c1cnn2ccc(C#N)cc12)S(=O)(=O)c1cc([N+](=O)[O-])ccc1NCc1ccccn1 | 680 nM | 1100 nM
33 | – | – | 40 nM | CN(Cc1ccccn1)c1ccc(C#N)cc1S(=O)(=O)N(C)/N=C/c1cnn2ccc(C#N)cc12 | 960 nM | 130 nM
34 | 55 nM | 180 nM | 9 nM | CN(CCc1cccnc1)c1ccc([N+](=O)[O-])cc1S(=O)(=O)N(C)/N=C/c1cnn2ccc(C#N)cc12 | 740 nM | < 2 nM
35 | 160 nM | 530 nM | 5.8 nM | CN(Cc1cccnc1)c1ccc([N+](=O)[O-])cc1S(=O)(=O)N(C)/N=C/c1cnn2ccc(C#N)cc12 | 630 nM | 540 nM
36 | 150 nM | 390 nM | 15 nM | CN(Cc1ccncc1)c1ccc([N+](=O)[O-])cc1S(=O)(=O)N(C)/N=C/c1cnn2ccc(C#N)cc12 | 480 nM | 44 nM
37 | 130 nM | 450 nM | 10 nM | CN(Cc1ccccn1)c1ccc([N+](=O)[O-])cc1S(=O)(=O)N(C)/N=C/c1cnn2ccc(C#N)cc12 | 330 nM | 90 nM
38 | 470 nM | > 1000 nM | 50 nM | CN(CCN)c1ccc([N+](=O)[O-])cc1S(=O)(=O)N(C)/N=C/c1cnn2ccc(C#N)cc12 | 57 nM | 29 nM
